Measurements as given in patent US20260102407A1, “TREATMENT METHODS” (priority 2020, published 2026).
Values joined by “and” are separate entries in the source; they are usually repeats but may differ in a detail not shown here. Identical values can stand only once.

What was measured:
VEGF-A165 = assay: Immunohistochemical staining of rat retina, VEGF-A165; type: in vivo
From the text: (§1) Rat choroidal laser injury model. Male Brown Norway pigmented rats (8-14 week-old) were anesthetized by an intramuscular injection of Rompun® (xylazine)/Imalgene® (ketamine). Pupils were dilated by instillation of one drop of 0.5% tropicamide before laser burn. Six burns were created in both eyes on Day 0 by applying 170 mW of 532 nm laser light (Viridis laser, Quantel, France) on 75 μm spots around the optic nerve, between the main retinal vessel branches, for 0.1s, through the slit lamp and contact lens. Production of a bubble at the time of laser application confirmed the rupture of Bruch's membrane. […] After anaesthesia, 10% sodium fluorescein (250 μl/100 g body weight) was injected subcutaneously, and ocular fluorescence was recorded 10 min after dye injection. Fluorescein leakage was evaluated on Days 14 and 21 in the angiograms by two examiners masked to the study groups and graded for fluorescein intensity as follows: score 0: no leakage; 1: slightly stained; 2: moderately stained; 3: strongly stained.
(§2) Immunohistochemical staining of rat retina. […] IOD of positive staining (red chromogen) was assessed for CD31, VEGF-A165, pERK, FosB and VCAM-1 using Image-Pro Plus software (Cybernetics, Bethesda, MD). IOD in IPL and INL was quantified for CD31; OPL to OS for VEGF-A165; INL to ONL for pERK; GCL to OS for FosB; OLM for VCAM-1, using Image-Pro Plus. […]

Solubility in water = type: physicochemical
FosB = assay: Immunohistochemical staining of rat retina, FosB; type: in vivo; details: lasered rat retinas
From the text: as §1, §2

[1] = test system: Brown Norway pigmented rats; assay: Rat choroidal laser injury model, fluorescein leakage; type: in vivo; details: 192 μg IVT, Days 0 and 7, HRA score Days 14 and 21
From the text: as §1, with “membrane. Compounds in vehicle (saline containing 0.01% DMSO and 0.5% Tween 80, sonicated) in 2-5 μl were injected IVT on Days 0 and 7 under an operating microscope using a 30G needle mounted on a 100 μl Hamilton syringe. Kenacort was administered IVT into each eye on Day 0. Alternatively, aflibercept/Eylea in vehicle (saline) was injected IVT 6 times (Days 0, 3, 7, 10, 14, 17).” for “membrane.”

pERK = assay: Immunohistochemical staining of rat retina, pERK; type: in vivo; details: lasered rat retinas
From the text: as §1, §2

Balb/c mice = assay: Toxicology, histopathology after intraperitoneal, intraarticular or gavage administration; details: for Eye (left and right), severity grade / Heart, severity grade / Kidney (left and right): inflammation, renal pelvis, severity grade / Liver: inflammation, peritoneal, severity grade / Liver: mineralisation, subcapsular, severity grade / Lung: osseous metaplasia, severity grade / Spleen, severity grade / Kidney (left and right): inflammation, interstitial, severity grade / Liver: inflammation, parenchymal, severity grade: Mouse 1-5
Experimental: Toxicology. Female Balb/c mice (8-9 week-old) were given 3 or 30 mg/kg BT2 (DMSO vehicle) via intraperitoneal injection (Days 0 and 5 in DMSO), oral gavage (Days 0-4 in DMSO/methylcellulose) or intraarticular injection (Day 0 in DMSO). Mice were euthanized after 8-11 d. Tissues was fixed in 10% formalin, processed routinely, sectioned at 4 μm and stained with hematoxylin and eosin.

[2] = Gavage BT2 3 mg/kg (Days 0-4), 3 mg/kg
[3] = IA BT2 3 mg/kg (Day 0), 3 mg/kg
[4] = IP BT2 3 mg/kg (Days 0 and 5), 3 mg/kg
[5] = IP BT2 30 mg/kg (Days 0 and 5), 30 mg/kg

CCOC(=O)Nc1ccc2c(c1)C(=O)N(CC)c1ccccc1O2 [BT2, (10-ethyl-11-oxo-10,11-dihydro-dibenzo[b,f][1,4]oxazepin-2-yl)-carbamic acid ethyl ester]
inducible expression of VEGF-A165 in retina (VEGF-A165; lasered rat eyes 21 days after injury): inhibited the inducible expression of VEGF-A165 | VEGF-A165 staining gradient relative to the wound (VEGF-A165; lasered rat eyes, 100 μm boxed increments): inhibited by BT2 | solubility in water (Solubility in water): poorly soluble in water | retinal FosB immunostaining (FosB): inhibited retinal FosB immunostaining | reduction of retinal permeability (fluorescein leakage) [1]: ~50% | inducible pERK staining in the INL, OPL and ONL (pERK): suppressed inducible pERK staining | histopathological evidence of toxicity (Balb/c mice; Balb/c mice, 3 or 30 mg/kg, intraperitoneal, intraarticular or oral gavage): no histopathological evidence of toxic damage | treated mice whose kidneys contained infrequent inflammatory foci (Balb/c mice; Balb/c mice, all BT2 groups, control one of 5): 4 of 30 | Eye (left and right), severity grade (Balb/c mice; Gavage BT2 3 mg/kg (Days 0-4)): 0 | Heart, severity grade (Balb/c mice; Gavage BT2 3 mg/kg (Days 0-4)): 0 | Kidney (left and right): inflammation, renal pelvis, severity grade (Balb/c mice; Gavage BT2 3 mg/kg (Days 0-4)): 0 | Liver: inflammation, peritoneal, severity grade (Balb/c mice; Gavage BT2 3 mg/kg (Days 0-4)): 0 | Liver: mineralisation, subcapsular, severity grade (Balb/c mice; Gavage BT2 3 mg/kg (Days 0-4)): 0 | Lung: osseous metaplasia, severity grade (Balb/c mice; Gavage BT2 3 mg/kg (Days 0-4)): 0 | Spleen, severity grade (Balb/c mice; Gavage BT2 3 mg/kg (Days 0-4)): 0 | Kidney (left and right): inflammation, interstitial, severity grade (Balb/c mice; [2]): 0 and 1 | Liver: inflammation, parenchymal, severity grade (Balb/c mice; [2]): 0 and 1 | Eye (left and right), severity grade (Balb/c mice; Gavage BT2 30 mg/kg (Days 0-4)): 0 | Heart, severity grade (Balb/c mice; Gavage BT2 30 mg/kg (Days 0-4)): 0 | Kidney (left and right): inflammation, interstitial, severity grade (Balb/c mice; Gavage BT2 30 mg/kg (Days 0-4)): 0 | Kidney (left and right): inflammation, renal pelvis, severity grade (Balb/c mice; Gavage BT2 30 mg/kg (Days 0-4)): 0 | Liver: inflammation, peritoneal, severity grade (Balb/c mice; Gavage BT2 30 mg/kg (Days 0-4)): 0 | Liver: mineralisation, subcapsular, severity grade (Balb/c mice; Gavage BT2 30 mg/kg (Days 0-4)): 0 | Lung: osseous metaplasia, severity grade (Balb/c mice; Gavage BT2 30 mg/kg (Days 0-4)): 0 | Spleen, severity grade (Balb/c mice; Gavage BT2 30 mg/kg (Days 0-4)): 0 | Liver: inflammation, parenchymal, severity grade (Balb/c mice; Gavage BT2 30 mg/kg (Days 0-4), 30 mg/kg): 1 and 0 | Eye (left and right), severity grade (Balb/c mice; IA BT2 3 mg/kg (Day 0)): 0 | Heart, severity grade (Balb/c mice; IA BT2 3 mg/kg (Day 0)): 0 | Liver: inflammation, peritoneal, severity grade (Balb/c mice; IA BT2 3 mg/kg (Day 0)): 0 | Liver: mineralisation, subcapsular, severity grade (Balb/c mice; IA BT2 3 mg/kg (Day 0)): 0 | Lung: osseous metaplasia, severity grade (Balb/c mice; IA BT2 3 mg/kg (Day 0)): 0 | Spleen, severity grade (Balb/c mice; IA BT2 3 mg/kg (Day 0)): 0 | Kidney (left and right): inflammation, interstitial, severity grade (Balb/c mice; [3]): 0 and 1 | Kidney (left and right): inflammation, renal pelvis, severity grade (Balb/c mice; [3]): 2 and 0 | Liver: inflammation, parenchymal, severity grade (Balb/c mice; [3]): 1 and 0 | Eye (left and right), severity grade (Balb/c mice; IA BT2 30 mg/kg (Day 0)): 0 | Heart, severity grade (Balb/c mice; IA BT2 30 mg/kg (Day 0)): 0 | Kidney (left and right): inflammation, interstitial, severity grade (Balb/c mice; IA BT2 30 mg/kg (Day 0)): 0 | Kidney (left and right): inflammation, renal pelvis, severity grade (Balb/c mice; IA BT2 30 mg/kg (Day 0)): 0 | Liver: inflammation, parenchymal, severity grade (Balb/c mice; IA BT2 30 mg/kg (Day 0)): 1 | Liver: inflammation, peritoneal, severity grade (Balb/c mice; IA BT2 30 mg/kg (Day 0)): 0 | Liver: mineralisation, subcapsular, severity grade (Balb/c mice; IA BT2 30 mg/kg (Day 0)): 0 | Lung: osseous metaplasia, severity grade (Balb/c mice; IA BT2 30 mg/kg (Day 0)): 0 | Spleen, severity grade (Balb/c mice; IA BT2 30 mg/kg (Day 0)): 0 | Eye (left and right), severity grade (Balb/c mice; IP BT2 3 mg/kg (Days 0 and 5)): 0 | Heart, severity grade (Balb/c mice; IP BT2 3 mg/kg (Days 0 and 5)): 0 | Kidney (left and right): inflammation, interstitial, severity grade (Balb/c mice; IP BT2 3 mg/kg (Days 0 and 5)): 0 | Kidney (left and right): inflammation, renal pelvis, severity grade (Balb/c mice; IP BT2 3 mg/kg (Days 0 and 5)): 0 | Liver: mineralisation, subcapsular, severity grade (Balb/c mice; IP BT2 3 mg/kg (Days 0 and 5)): 0 | Spleen, severity grade (Balb/c mice; IP BT2 3 mg/kg (Days 0 and 5)): 0 | Liver: inflammation, parenchymal, severity grade (Balb/c mice; [4]): 1 and 0 | Liver: inflammation, peritoneal, severity grade (Balb/c mice; [4]): 0 and 2 and 1 | Lung: osseous metaplasia, severity grade (Balb/c mice; [4]): 0 and 1 | Eye (left and right), severity grade (Balb/c mice; IP BT2 30 mg/kg (Days 0 and 5)): 0 | Heart, severity grade (Balb/c mice; IP BT2 30 mg/kg (Days 0 and 5)): 0 | Kidney (left and right): inflammation, interstitial, severity grade (Balb/c mice; IP BT2 30 mg/kg (Days 0 and 5)): 0 | Lung: osseous metaplasia, severity grade (Balb/c mice; IP BT2 30 mg/kg (Days 0 and 5)): 0 | Spleen, severity grade (Balb/c mice; IP BT2 30 mg/kg (Days 0 and 5)): 0 | Kidney (left and right): inflammation, renal pelvis, severity grade (Balb/c mice; [5]): 0 and 4 | Liver: inflammation, parenchymal, severity grade (Balb/c mice; [5]): 1 and 2 | Liver: inflammation, peritoneal, severity grade (Balb/c mice; [5]): 1 and 2 | Liver: mineralisation, subcapsular, severity grade (Balb/c mice; [5]): 0 and 1
